According to ChEMBL document CHEMBL4765354, “Structure guided design of potent indole-based ATX inhibitors bearing hydrazone moiety with tumor suppression effects” (Eur J Med Chem, 2020):

How the values were obtained:
NCI-H2228 = test: Antiproliferative activity against human NCI-H2228 cells measured after 72 hrs by MTT assay; type: functional, cell-based; settings: NCI-H2228, 72 h
A549 = test: Antiproliferative activity against human A549 cells measured after 72 hrs by MTT assay; type: functional, cell-based; settings: A549, 72 h
MCF7 = test: Antiproliferative activity against human MCF7 cells measured after 72 hrs by MTT assay; type: functional, cell-based; settings: MCF7, 72 h
MDA-MB-231 = test: Antiproliferative activity against human MDA-MB-231 cells measured after 72 hrs by MTT assay; type: functional, cell-based; settings: MDA-MB-231, 72 h
Autotaxin = Autotaxin (Homo sapiens, UniProt Q13822); test: Inhibition of human C-terminal His6-tagged ATX beta expressed in Sf9 insect cells using FS-3 as substrate preincubated for 45 mins followed by substrate addition and measured at 1 min interval for 30 mins by fluorescence assay

IC50 (NCI-H2228) [µM] | IC50 (A549) [µM] | IC50 (MCF7) [µM] | IC50 (MDA-MB-231) [µM] | IC50 (Autotaxin) [µM] | SMILES
11.3 | 8.21 | 2.31 | 4.17 | – | O=C(CCN1CCN(C(=O)OCc2cc(Cl)cc(Cl)c2)CC1)c1ccc2[nH]c(=O)oc2c1
– | > 15 | – | 5.12 | 2.06 | CCn1cc(/C(=N/Nc2nc(-c3ccc(OC)cc3)c(C#N)s2)C(F)(F)F)c2cc(-c3nc(CN4CCOCC4)cs3)ccc21
– | 10.3 | 5.13 | – | 2.05 | CCn1cc(/C(=N/Nc2nc(-c3ccc(F)cc3)c(C#N)s2)C(F)(F)F)c2cc(-c3nc(CN4CCC(O)CC4)cs3)ccc21
> 15 | 13.8 | 5.73 | 3.21 | 2.13 | CCN1CCN(Cc2csc(-c3ccc4c(c3)c(/C(=N/Nc3nc(-c5ccc(Cl)cc5)c(C#N)s3)C(F)(F)F)cn4CC)n2)CC1
– | 9.81 | 2.23 | – | > 10 | CCn1cc(/C(=N/Nc2nc(-c3ccc(OC)cc3)c(C#N)s2)C(F)(F)F)c2cc(-c3nc(CN4CCC(C)CC4)cs3)ccc21
6.31 | 8.01 | 1.79 | – | 0.126 | CCn1cc(/C(=N/Nc2nc3ccccc3s2)C(F)(F)F)c2cc(-c3nc(CN4CCCC4)cs3)ccc21
– | > 15 | 4.33 | 2.69 | 1.54 | CCN1CCN(Cc2csc(-c3ccc4c(c3)c(/C(=N/Nc3nc(-c5ccc(F)cc5)c(C#N)s3)C(F)(F)F)cn4CC)n2)CC1
> 15 | 7.31 | 3.25 | – | 0.78 | CCn1cc(/C(=N/Nc2nc(-c3ccc(F)cc3)c(C#N)s2)C(F)(F)F)c2cc(-c3nc(CN4CCN(CCO)CC4)cs3)ccc21
> 15 | – | 1.37 | 3.98 | 0.56 | CCn1cc(/C(=N/Nc2nc(-c3ccc(OC)cc3)c(C#N)s2)C(F)(F)F)c2cc(-c3nc(CN4CCC(O)CC4)cs3)ccc21
– | > 15 | – | 2.33 | 1.43 | CCn1cc(/C(=N/Nc2nc(-c3ccc(Cl)cc3)c(C#N)s2)C(F)(F)F)c2cc(-c3nc(CN4CCC(O)CC4)cs3)ccc21
– | – | – | – | 5.27 | CCn1cc(/C(=N/Nc2nc(-c3ccc(F)cc3)c(C#N)s2)C(F)(F)F)c2cc(-c3nc(CN4CCC[C@H]4CO)cs3)ccc21
> 15 | – | 1.67 | 3.67 | 0.104 | Cc1[nH]c2cc(F)c(N3CCC(C(=O)N4CCOCC4)CC3)cc2c1/C=N/Nc1nc(-c2ccc(F)cc2)c(C#N)s1
– | > 15 | 4.67 | – | 0.93 | CCN1CCN(Cc2csc(-c3ccc4c(c3)c(/C(=N/Nc3nc(-c5ccc(OC)cc5)c(C#N)s3)C(F)(F)F)cn4CC)n2)CC1
– | > 15 | 1.51 | 1.23 | 0.98 | CCn1cc(/C(=N/Nc2nc(-c3ccc(OC)cc3)c(C#N)s2)C(F)(F)F)c2cc(-c3nc(CN4CCC[C@H]4C(=O)O)cs3)ccc21
7.18 | 11 | 0.43 | 0.31 | 0.0021 | CCn1cc(/C(=N/Nc2nc3ccccc3s2)C(F)(F)F)c2cc(-c3nc(CN4CCC(O)CC4)cs3)ccc21
> 15 | – | – | 1.21 | 1.41 | CCn1cc(/C(=N/Nc2nc(-c3ccc(Cl)cc3)c(C#N)s2)C(F)(F)F)c2cc(-c3nc(CN4CCC[C@H]4CO)cs3)ccc21
– | 9.37 | 2.73 | 7.3 | 0.201 | CCn1cc(/C(=N/Nc2nc3ccccc3s2)C(F)(F)F)c2cc(-c3nc(CN4CCOCC4)cs3)ccc21
– | > 15 | 5.03 | 1.56 | 2.45 | CCn1cc(/C(=N/Nc2nc(-c3ccc(Cl)cc3)c(C#N)s2)C(F)(F)F)c2cc(-c3nc(CN4CCCC4)cs3)ccc21
– | > 15 | 1.92 | 3.49 | 0.072 | CCn1cc(/C(=N/Nc2nc3ccccc3s2)C(F)(F)F)c2cc(-c3nc(CN4CCC[C@H]4C(=O)O)cs3)ccc21
– | > 15 | – | 1.14 | 0.159 | CCN1CCN(C(=O)C2CCN(c3cc4c(/C=N/Nc5nc(-c6ccc(F)cc6)c(C#N)s5)c(C)[nH]c4cc3F)CC2)CC1
2.6 | 4.93 | 2.79 | 8.21 | 1.85 | CCn1cc(/C(=N/Nc2nc(-c3ccc(OC)cc3)c(C#N)s2)C(F)(F)F)c2cc(-c3nc(CN4CCN(C)CC4)cs3)ccc21
> 15 | > 15 | 2.31 | 4.97 | 2.37 | CCn1cc(/C(=N/Nc2nc(-c3ccc(F)cc3)c(C#N)s2)C(F)(F)F)c2cc(-c3nc(CN4CCOCC4)cs3)ccc21

IC50 (NCI-H2228) [µM] | IC50 (A549) [µM] | IC50 (MCF7) [µM] | IC50 (MDA-MB-231) [µM] | IC50 (Autotaxin) [µM] | SMILES
– | 6.92 | 1.79 | – | 1.25 | CCn1cc(/C(=N/Nc2nc(-c3ccc(F)cc3)c(C#N)s2)C(F)(F)F)c2cc(-c3nc(CN4CC(O)C4)cs3)ccc21
– | 11.7 | 2.1 | – | 3.02 | CCn1cc(/C(=N/Nc2nc(-c3ccc(F)cc3)c(C#N)s2)C(F)(F)F)c2cc(-c3nc(CN4CCN(C)CC4)cs3)ccc21
– | 10.9 | 4.26 | – | 0.87 | CCn1cc(/C(=N/Nc2nc(-c3ccc(OC)cc3)c(C#N)s2)C(F)(F)F)c2cc(-c3nc(CN4CCC[C@H]4CO)cs3)ccc21
5.71 | > 15 | 1.57 | 5.46 | 3.43 | CCn1cc(/C(=N/Nc2nc(-c3ccc(F)cc3)c(C#N)s2)C(F)(F)F)c2cc(-c3nc(CN4CCCCC4)cs3)ccc21
11.5 | > 15 | 2.91 | 1.23 | 0.167 | COc1ccc(-c2nc(N/N=C(/c3c(C)[nH]c4cc(F)c(N5CCN(CCN(C)C)CC5)cc34)C(F)(F)F)sc2C#N)cc1
> 15 | – | – | 2.08 | 0.337 | CCn1cc(/C(=N/Nc2nc3ccccc3s2)C(F)(F)F)c2cc(-c3nc(CN4CCC(C)CC4)cs3)ccc21
> 15 | 9.07 | 0.75 | – | 0.057 | Cc1[nH]c2cc(F)c(N3CCC(C(=O)N4CCCC4)CC3)cc2c1/C(=N/Nc1nc(-c2ccc(F)cc2)c(C#N)s1)C(F)(F)F
> 15 | 9.41 | 3.25 | 2.72 | 2.97 | Cn1cc(/C(=N/Nc2nc(-c3ccc(Cl)cc3)c(C#N)s2)C(F)(F)F)c2cc(-c3nc(CN4CCOCC4)cs3)ccc21
> 15 | 13.7 | – | 5.17 | 3.05 | CCn1cc(/C(=N/Nc2nc(-c3ccc(OC)cc3)c(C#N)s2)C(F)(F)F)c2cc(-c3nc(CN4CCCC4)cs3)ccc21
> 15 | > 15 | > 15 | 2.43 | 0.91 | CCn1cc(/C(=N/Nc2nc(-c3ccc(OC)cc3)c(C#N)s2)C(F)(F)F)c2cc(-c3nc(CN4CC(O)C4)cs3)ccc21
9.65 | 9.21 | 4.83 | 4.51 | 1.72 | Cn1cc(/C(=N/Nc2nc(-c3ccc(F)cc3)c(C#N)s2)C(F)(F)F)c2cc(-c3nc(CN4CCC(O)CC4)cs3)ccc21
– | – | – | – | 6.07 | CCn1cc(/C(=N/Nc2nc(-c3ccc(Cl)cc3)c(C#N)s2)C(F)(F)F)c2cc(-c3nc(CN4CCCCC4)cs3)ccc21
> 15 | > 15 | 0.65 | 1.27 | 0.61 | CCn1cc(/C(=N/Nc2nc(-c3ccc(F)cc3)c(C#N)s2)C(F)(F)F)c2cc(-c3nc(CN4CCC[C@H]4C(=O)O)cs3)ccc21
> 15 | 13.4 | 1.01 | 0.79 | 0.019 | Cc1[nH]c2cc(F)c(N3CCN(CCN(C)C)CC3)cc2c1/C(=N/Nc1nc(-c2ccc(F)cc2)c(C#N)s1)C(F)(F)F
> 15 | – | – | 1.56 | 1.21 | CCn1cc(/C(=N/Nc2nc(-c3ccc(Cl)cc3)c(C#N)s2)C(F)(F)F)c2cc(-c3nc(CN4CCN(C)CC4)cs3)ccc21
> 15 | – | > 15 | 3.41 | 2.46 | CCn1cc(/C(=N/Nc2nc(-c3ccc(Cl)cc3)c(C#N)s2)C(F)(F)F)c2cc(-c3nc(CN4CC(O)C4)cs3)ccc21
– | – | – | – | 4.21 | CCn1cc(/C(=N/Nc2nc(-c3ccc(Cl)cc3)c(C#N)s2)C(F)(F)F)c2cc(-c3nc(CN4CCC(C)CC4)cs3)ccc21
7.93 | > 15 | 3.12 | – | 0.107 | CCn1cc(/C(=N/Nc2nc3ccccc3s2)C(F)(F)F)c2cc(-c3nc(CN4CCCCC4)cs3)ccc21
8.51 | 7.43 | 2.78 | 1.45 | 0.116 | CCn1cc(/C(=N/Nc2nc3ccccc3s2)C(F)(F)F)c2cc(-c3nc(CN4CCN(C)CC4)cs3)ccc21
6.31 | > 15 | 2.85 | 2.37 | 1.31 | CCn1cc(/C(=N/Nc2nc(-c3ccc(F)cc3)c(C#N)s2)C(F)(F)F)c2cc(-c3nc(CN4CCCC4)cs3)ccc21
> 15 | > 15 | 8.32 | 6.27 | – | CCc1nc2c(C)cc(N3CCN(CC(=O)N4CC(O)C4)CC3)cn2c1N(C)c1nc(-c2ccc(F)cc2)c(C#N)s1 [ZIRITAXESTAT]
